Data from patent US11266692B2, “Intracellular genomic transplant and methods of therapy” (Regents of the University of Minnesota, priority 2015, dated 2022).

Tests used:
Assay in all cases: Validation of gRNAs: Cas9/gRNA plasmids in HEK293T, Surveyor digest, gel densitometry
Format in all cases: cell-based, human
AAVS1 = AAVS1 gene site, 3 days
Method: (§1) HEK293T cells were plated out at a density of 1×10^5 cells per well in a 24 well plate. 150 uL of Opti-MEM medium was combined with 1.5 ug of gRNA plasmid, 1.5 ug of Cas9 plasmid. Another 150 uL of Opti-MEM medium was combined with 5 ul of Lipofectamine 2000 Transfection reagent (Invitrogen). The solutions were combined together and incubated for 15 minutes at room temperature. The DNA-lipid complex was added dropwise to wells of the 24 well plate. Cells were incubated for 3 days at 37° C. and genomic DNA was collected using the GeneJET Genomic DNA Purification Kit (Thermo Scientific). Activity of the gRNAs was quantified by a Surveyor Digest, gel electrophoresis, and densitometry (FIG. 60 and FIG. 61) (Guschin, D. Y., et al., “A Rapid and General Assay for Monitoring Endogenous Gene Modification,” Methods in Molecular Biology, 649: 247-256 (2010)).
(§2) The percentage numbers in Table 7 indicated the percent of gene modifications in the sample.

CCR5 = CCR5 gene site, 3 days
Method: as §1
(§3) The efficiencies of Cas9 in creating double strand break (DSB) with the assistance of different gRNA sequences were listed in Table 7. The percentage numbers in Table 7 indicated the percent of gene modifications in the sample.

CTLA4 = CTLA4 gene site, 3 days
Method: as §1, §3

HPRT = HPRT gene site, 3 days
Method: as §1, §3

PD1 = PD1 gene site, 3 days
Method: as §1, §2

Substance: AAVS1 gRNA#1: guide RNA to AAVS1; sense primer SEQ ID 19 CACCGTGGGGGTTAGACCCAATATC
- efficiency of Cas9/gRNA pair in creating double strand break (DSB), percent of gene modifications (AAVS1): 32.99%

Substance: AAVS1 gRNA#2: guide RNA to AAVS1; sense primer SEQ ID 21 CACCGACCCCACAGTGGGGCCACTA
- efficiency of Cas9/gRNA pair in creating double strand break (DSB), percent of gene modifications (AAVS1): 27.10%

Substance: AAVS1 gRNA#5: guide RNA to AAVS1; sense primer SEQ ID 27 CACCGCCGGCCCTGGGAATATAAGG
- efficiency of Cas9/gRNA pair in creating double strand break (DSB), percent of gene modifications (AAVS1): 27.55%

Substance: AAVS1 gRNA#6: guide RNA to AAVS1; sense primer SEQ ID 29 CACCGCGGGCCCCTATGTCCACTTC
- efficiency of Cas9/gRNA pair in creating double strand break (DSB), percent of gene modifications (AAVS1): 39.62%

Substance: CCR5 gRNA#1: guide RNA to CCR5; sense primer SEQ ID 61 CACCGACAATGTGTCAACTCTTGAC
- efficiency of Cas9/gRNA pair in creating double strand break (DSB), percent of gene modifications (CCR5): 21.47%

Substance: CCR5 gRNA#2: guide RNA to CCR5; sense primer SEQ ID 63 CACCGTCATCCTCCTGACAATCGAT
- efficiency of Cas9/gRNA pair in creating double strand break (DSB), percent of gene modifications (CCR5): >60%

Substance: CCR5 gRNA#3: guide RNA to CCR5; sense primer SEQ ID 65 CACCGGTGACAAGTGTGATCACTT
- efficiency of Cas9/gRNA pair in creating double strand break (DSB), percent of gene modifications (CCR5): 55.98%

Substance: CCR5 gRNA#4: guide RNA to CCR5; sense primer SEQ ID 67 CACCGACACAGCATGGACGACAGCC
- efficiency of Cas9/gRNA pair in creating double strand break (DSB), percent of gene modifications (CCR5): 45.99%

Substance: CCR5 gRNA#5: guide RNA to CCR5; sense primer SEQ ID 69 CACCGATCTGGTAAAGATGATTCC
- efficiency of Cas9/gRNA pair in creating double strand break (DSB), percent of gene modifications (CCR5): 36.07%

Substance: CCR5 gRNA#6: guide RNA to CCR5; sense primer SEQ ID 71 CACCGTTGTATTTCCAAAGTCCCAC
- efficiency of Cas9/gRNA pair in creating double strand break (DSB), percent of gene modifications (CCR5): 33.17%

Substance: CTLA4 gRNA#1: guide RNA to CTLA4; sense primer SEQ ID 47 CACCGCCGGGTGACAGTGCTTCGGC
- efficiency of Cas9/gRNA pair in creating double strand break (DSB), percent of gene modifications (CTLA4): 40.96%

Substance: CTLA4 gRNA#2: guide RNA to CTLA4; sense primer SEQ ID 49 CACCGTGCGGCAACCTACATGATG
- efficiency of Cas9/gRNA pair in creating double strand break (DSB), percent of gene modifications (CTLA4): 56.10%

Substance: CTLA4 gRNA#3: guide RNA to CTLA4; sense primer SEQ ID 51 CACCGCTAGATGATTCCATCTGCAC
- efficiency of Cas9/gRNA pair in creating double strand break (DSB), percent of gene modifications (CTLA4): 39.33%

Substance: CTLA4 gRNA#4: guide RNA to CTLA4; sense primer SEQ ID 53 CACCGAGGTTCACTTGATTTCCAC
- efficiency of Cas9/gRNA pair in creating double strand break (DSB), percent of gene modifications (CTLA4): 40.13%

Substance: CTLA4 gRNA#5: guide RNA to CTLA4; sense primer SEQ ID 55 CACCGCCGCACAGACTTCAGTCACC
- efficiency of Cas9/gRNA pair in creating double strand break (DSB), percent of gene modifications (CTLA4): 15.90%

Substance: CTLA4 gRNA#6: guide RNA to CTLA4; sense primer SEQ ID 57 CACCGCTGGCGATGCCTCGGCTGC
- efficiency of Cas9/gRNA pair in creating double strand break (DSB), percent of gene modifications (CTLA4): 36.93%

Substance: HPRT gRNA#1: guide RNA to HPRT; sense primer SEQ ID 5 CACCGCACGTGTGAACCAACCCGCC
- efficiency of Cas9/gRNA pair in creating double strand break (DSB), percent of gene modifications (HPRT): 27.85% ^

Substance: HPRT gRNA#2: guide RNA to HPRT; sense primer SEQ ID 7 CACCGAAACAACAGGCCGGGCGGGT
- efficiency of Cas9/gRNA pair in creating double strand break (DSB), percent of gene modifications (HPRT): 30.04% ^

Substance: HPRT gRNA#3: guide RNA to HPRT; sense primer SEQ ID 9 CACCGACAAAAAAATTAGCCGGGTG
- efficiency of Cas9/gRNA pair in creating double strand break (DSB), percent of gene modifications (HPRT): <1%

Substance: HPRT gRNA#4: guide RNA to HPRT; sense primer SEQ ID 11 CACCGTAAATTTCTCTGATAGACTA
- efficiency of Cas9/gRNA pair in creating double strand break (DSB), percent of gene modifications (HPRT): <5%

Substance: HPRT gRNA#5: guide RNA to HPRT; sense primer SEQ ID 13 CACCGTGTTTCAATGAGAGCATTAC
- efficiency of Cas9/gRNA pair in creating double strand break (DSB), percent of gene modifications (HPRT): <1%

Substance: HPRT gRNA#6: guide RNA to HPRT; sense primer SEQ ID 15 CACCGGTCTCGAACTCCTGAGCTC
- efficiency of Cas9/gRNA pair in creating double strand break (DSB), percent of gene modifications (HPRT): <5%

Substance: PD1 gRNA#1: guide RNA to PD-1; sense primer SEQ ID 33 CACCGCGGAGAGCTTCGTGCTAAAC
- efficiency of Cas9/gRNA pair in creating double strand break (DSB), percent of gene modifications (PD1): 10.83%

Substance: PD1 gRNA#2: guide RNA to PD-1; sense primer SEQ ID 35 CACCGCCTGCTCGTGGTGACCGAAG
- efficiency of Cas9/gRNA pair in creating double strand break (DSB), percent of gene modifications (PD1): >60%

Substance: PD1 gRNA#4: guide RNA to PD-1; sense primer SEQ ID 39 CACCGAGGCGGCCAGCTTGTCCGTC
- efficiency of Cas9/gRNA pair in creating double strand break (DSB), percent of gene modifications (PD1): 20.87%

Substance: PD1 gRNA#5: guide RNA to PD-1; sense primer SEQ ID 41 CACCGCGTTGGGCAGTTGTGTGACA
- efficiency of Cas9/gRNA pair in creating double strand break (DSB), percent of gene modifications (PD1): 30.60%

Substance: PD1 gRNA#6: guide RNA to PD-1; sense primer SEQ ID 43 CACCGACGGAAGCGGCAGTCCTGGC
- efficiency of Cas9/gRNA pair in creating double strand break (DSB), percent of gene modifications (PD1): 25.91%
